Measured values reported in US12037345B2, “Heterobicyclic compounds for inhibiting the activity of SHP2” (TAIHO PHARMACEUTICAL CO., LTD., priority 2018, dated 2024).

Legend:
[1] = system: pERK (phospho-p44/42 ERK) in HCC827 cells; test: Cellular pERK Inhibition Assay, Method A (In-Cell Western); type: cell-based; conditions: Homo sapiens, Table 19, head prints unit as "-M", read-out: pERK (IC50) Method A
Outline: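 HCC827 cells in RPMI/10% FBS were treated with compounds in serum-free medium (0.2% DMSO final) at 37 °C for the indicated time, in quadruplicate. Fixed cells were immunostained for phospho-p44/42 ERK and read by infrared imaging. Blank-subtracted signal was expressed as % of DMSO control; IC50 from four-parameter logistic fit, averaged across experiments.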

SHP2 = SHP2 (Homo sapiens (Human), UniProt Q06124); test: SHP2 Biochemical Assay (DiFMUP conversion, pIRS1-activated); conditions: Table 19; head prints unit as "-M"
Chain of SHP2 (Q06124 whole entry): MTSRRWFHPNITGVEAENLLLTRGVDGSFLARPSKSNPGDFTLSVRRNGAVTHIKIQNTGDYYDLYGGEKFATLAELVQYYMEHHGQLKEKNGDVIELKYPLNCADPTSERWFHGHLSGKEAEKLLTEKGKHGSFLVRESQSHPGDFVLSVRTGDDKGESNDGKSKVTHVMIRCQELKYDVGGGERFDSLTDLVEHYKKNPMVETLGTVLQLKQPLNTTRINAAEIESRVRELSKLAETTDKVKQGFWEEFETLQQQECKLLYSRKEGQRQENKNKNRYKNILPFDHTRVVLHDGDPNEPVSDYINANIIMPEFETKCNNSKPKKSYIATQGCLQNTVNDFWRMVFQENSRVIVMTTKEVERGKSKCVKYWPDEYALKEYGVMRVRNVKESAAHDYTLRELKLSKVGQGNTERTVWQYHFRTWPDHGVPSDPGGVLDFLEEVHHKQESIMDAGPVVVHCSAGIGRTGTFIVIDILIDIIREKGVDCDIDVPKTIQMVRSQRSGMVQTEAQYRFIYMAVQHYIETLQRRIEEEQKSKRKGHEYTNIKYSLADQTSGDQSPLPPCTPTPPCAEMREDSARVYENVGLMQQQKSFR
Outline: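 Human SHP2 (10 pM) pre-incubated 30 min with compound and […] pIRS1 activating peptide, then 50 μM DiFMUP added; buffer 25 mM Bis-Tris propane pH 7.0, 150 mM NaCl, 5% DMSO. Fluorescence rate (ex 360/em 450 nm) over 30 min; IC50 by four-parameter fit, averaged across experiments.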

Which IC50 [1] does the source give for `Cn1cc2c(Cl)c(-c3c[nH]c4nc(N5C[C@H]6CC[C@@H](C5)[C@@H]6N)n(C)c(=O)c34)ccc2n1` [Example 24, 2-(exo-8-amino-3-azabicyclo[3.2.1]octan-3-yl)-5-(4-chloro-2-methyl-2H-indazol-5-yl)-3-methyl-3,7-dihydro-4H-pyrrolo[2,3-d]pyrimidin-4-one] here?
Its IC50 is 140 nM.

What about the IC50 (SHP2) of the same compound?
The IC50 was 18 nM.

With `Cn1cc2c(Cl)c(-c3c[nH]c4nc(N5C[C@H]6CC[C@@H](C5)[C@H]6N)n(C)c(=O)c34)ccc2n1` [Example 25, 2-(endo-8-amino-3-azabicyclo[3.2.1]octan-3-yl)-5-(4-chloro-2-methyl-2H-indazol-5-yl)-3-methyl-3,7-dihydro-4H-pyrrolo[2,3-d]pyrimidin-4-one] as the compound, how does the IC50 [1] read?
Its IC50 is 430 nM.

And the IC50 (SHP2)?
The IC50 was 35 nM.

For `Cn1cc2c(Cl)c(-c3c[nH]c4nc(N5C6CCCC5CNC6)n(C)c(=O)c34)ccc2n1` [Example 27, 2-(3,9-diazabicyclo[3.3.1]nonan-9-yl)-5-(4-chloro-2-methyl-2H-indazol-5-yl)-3-methyl-3,7-dihydro-4H-pyrrolo[2,3-d]pyrimidin-4-one], which IC50 [1] is on record?
The IC50 was 46 nM.

What about the IC50 (SHP2) of the same compound?
Its IC50 is 7 nM.

With `Cn1cc2c(Cl)c(-c3c[nH]c4nc(N5CC6CCC(C5)N6)n(C)c(=O)c34)ccc2n1` [Example 28, 2-(3,8-diazabicyclo[3.2.1]octan-3-yl)-5-(4-chloro-2-methyl-2H-indazol-5-yl)-3-methyl-3,7-dihydro-4H-pyrrolo[2,3-d]pyrimidin-4-one] as the compound, how does the IC50 [1] read?
The IC50 was 680 nM.

And the IC50 (SHP2)?
Its IC50 is 19 nM.

How did the IC50 [1] turn out when `Cn1cc2c(Cl)c(-c3c[nH]c4nc(N5C6CNCC5C6)n(C)c(=O)c34)ccc2n1` [Example 29, 2-(3,6-diazabicyclo[3.1.1]heptan-6-yl)-5-(4-chloro-2-methyl-2H-indazol-5-yl)-3-methyl-3,7-dihydro-4H-pyrrolo[2,3-d]pyrimidin-4-one] was run?
The IC50 was 2400 nM.

What about the IC50 (SHP2) of the same compound?
Its IC50 is 220 nM.

For `Cn1cc2c(Cl)c(-c3c[nH]c4nc(N5CC6CCCC(C5)N6)n(C)c(=O)c34)ccc2n1` [Example 30, 2-(3,9-diazabicyclo[3.3.1]nonan-3-yl)-5-(4-chloro-2-methyl-2H-indazol-5-yl)-3-methyl-3,7-dihydro-4H-pyrrolo[2,3-d]pyrimidin-4-one], which IC50 [1] is on record?
The IC50 was 220 nM.

And the IC50 (SHP2)?
The IC50 was 9.7 nM.

What does the source list for `Cn1cc2c(Cl)c(-c3c[nH]c4nc(N5CC6CC(C5)N6)n(C)c(=O)c34)ccc2n1` [Example 31, 2-(3,6-diazabicyclo[3.1.1]heptan-3-yl)-5-(4-chloro-2-methyl-2H-indazol-5-yl)-3-methyl-3,7-dihydro-4H-pyrrolo[2,3-d]pyrimidin-4-one]?
IC50 [1]: 1000 nM; IC50 (SHP2): 40 nM

Which IC50 [1] does the source give for `Cn1cc2c(Cl)c(-c3c[nH]c4nc(N5CC6CCC5CN6)n(C)c(=O)c34)ccc2n1` (stereo not shown) [Example 32, 2-(2,5-diazabicyclo[2.2.2]octan-2-yl)-5-(4-chloro-2-methyl-2H-indazol-5-yl)-3-methyl-3,7-dihydro-4H-pyrrolo[2,3-d]pyrimidin-4-one] here?
Its IC50 is 920 nM.

And the IC50 (SHP2)?
Its IC50 is 17 nM.

For `Cn1cc2c(Cl)c(-c3c[nH]c4nc(N5C[C@H]6C[C@@H](C5)[C@@H]6N)n(C)c(=O)c34)ccc2n1` [Example 33, 2-(exo-6-amino-3-azabicyclo[3.1.1]heptan-3-yl)-5-(4-chloro-2-methyl-2H-indazol-5-yl)-3-methyl-3,7-dihydro-4H-pyrrolo[2,3-d]pyrimidin-4-one], which IC50 [1] is on record?
Its IC50 is 480 nM.

And the IC50 (SHP2)?
Its IC50 is 47 nM.

Which IC50 [1] does the source give for `Cn1cc2c(Cl)c(-c3c[nH]c4nc(N5C[C@H]6C[C@@H](C5)[C@H]6N)n(C)c(=O)c34)ccc2n1` [Example 34, 2-(endo-6-amino-3-azabicyclo[3.1.1]heptan-3-yl)-5-(4-chloro-2-methyl-2H-indazol-5-yl)-3-methyl-3,7-dihydro-4H-pyrrolo[2,3-d]pyrimidin-4-one] here?
The IC50 was 2300 nM.

What about the IC50 (SHP2) of the same compound?
Its IC50 is 160 nM.

`Cn1cc2c(Cl)c(-c3c[nH]c4nc(N5CC6CC5CC6N)n(C)c(=O)c34)ccc2n1` (stereo not shown) [Example 35, 2-(5-amino-2-azabicyclo[2.2.1]heptan-2-yl)-5-(4-chloro-2-methyl-2H-indazol-5-yl)-3-methyl-3,7-dihydro-4H-pyrrolo[2,3-d]pyrimidin-4-one] was tested. Which IC50 [1] did it give?
Its IC50 is 1000 nM.

And the IC50 (SHP2)?
The IC50 was 38 nM.

For `Cn1cc2c(Cl)c(-c3c[nH]c4nc(N5[C@@H]6CCC[C@H]5C[C@H](N)C6)n(C)c(=O)c34)ccc2n1` [Example 36, 2-(exo-3-amino-9-azabicyclo[3.3.1]nonan-9-yl)-5-(4-chloro-2-methyl-2H-indazol-5-yl)-3-methyl-3,7-dihydro-4H-pyrrolo[2,3-d]pyrimidin-4-one], which IC50 [1] is on record?
The IC50 was 350 nM.

What about the IC50 (SHP2) of the same compound?
Its IC50 is 5.5 nM.

Which IC50 [1] does the source give for `Cn1cc2c(Cl)c(-c3c[nH]c4nc(N5[C@@H]6CCC[C@H]5C[C@@H](N)C6)n(C)c(=O)c34)ccc2n1` [Example 37, 2-(endo-3-amino-9-azabicyclo[3.3.1]nonan-9-yl)-5-(4-chloro-2-methyl-2H-indazol-5-yl)-3-methyl-3,7-dihydro-4H-pyrrolo[2,3-d]pyrimidin-4-one] here?
Its IC50 is 970 nM.

What about the IC50 (SHP2) of the same compound?
Its IC50 is 12 nM.

With `Cn1cc2c(Cl)c(-c3c[nH]c4nc(N5CCC6(CCCN6)CC5)n(C)c(=O)c34)ccc2n1` [Example 38, 5-(4-chloro-2-methyl-2H-indazol-5-yl)-3-methyl-2-(1,8-diazaspiro[4.5]decan-8-yl)-3,7-dihydro-4H-pyrrolo[2,3-d]pyrimidin-4-one] as the compound, how does the IC50 [1] read?
Its IC50 is 1400 nM.

What about the IC50 (SHP2) of the same compound?
The IC50 was 74 nM.

Which IC50 [1] does the source give for `Cn1cc2c(Cl)c(-c3c[nH]c4nc(N5CCNCC5)n(C)c(=O)c34)ccc2n1` [Example 39, 5-(4-chloro-2-methyl-2H-indazol-5-yl)-3-methyl-2-(piperazin-1-yl)-3,7-dihydro-4H-pyrrolo[2,3-d]pyrimidin-4-one] here?
The IC50 was 700 nM.

What about the IC50 (SHP2) of the same compound?
Its IC50 is 66 nM.

Which results are given for `Cn1cc2c(Cl)c(-c3c[nH]c4nc(N5CCC6NCC6C5)n(C)c(=O)c34)ccc2n1` (stereo not shown) [Example 40, 2-(3,7-diazabicyclo[4.2.0]octan-3-yl)-5-(4-chloro-2-methyl-2H-indazol-5-yl)-3-methyl-3,7-dihydro-4H-pyrrolo[2,3-d]pyrimidin-4-one]?
IC50 [1]: 4500 nM; IC50 (SHP2): 96 nM

For `Cn1cc2c(Cl)c(-c3c[nH]c4nc(N5CCC6(CCCCN6)CC5)n(C)c(=O)c34)ccc2n1` [Example 41, 5-(4-chloro-2-methyl-2H-indazol-5-yl)-3-methyl-2-(1,9-diazaspiro[5.5]undecan-9-yl)-3,7-dihydro-4H-pyrrolo[2,3-d]pyrimidin-4-one], which IC50 [1] is on record?
Its IC50 is 1800 nM.

And the IC50 (SHP2)?
The IC50 was 57 nM.

How did the IC50 [1] turn out when `Cn1cc2c(Cl)c(-c3c[nH]c4nc(N5CC[C@H](N)C5)n(C)c(=O)c34)ccc2n1` [Example 43, (S)-2-(3-aminopyrrolidin-1-yl)-5-(4-chloro-2-methyl-2H-indazol-5-yl)-3-methyl-3,7-dihydro-4H-pyrrolo[2,3-d]pyrimidin-4-one] was run?
The IC50 was 720 nM.

What about the IC50 (SHP2) of the same compound?
Its IC50 is 35 nM.

Which results are given for `Cn1cc2c(Cl)c(-c3c[nH]c4nc(N5CC[C@@H](N)C5)n(C)c(=O)c34)ccc2n1` [Example 44, (R)-2-(3-aminopyrrolidin-1-yl)-5-(4-chloro-2-methyl-2H-indazol-5-yl)-3-methyl-3,7-dihydro-4H-pyrrolo[2,3-d]pyrimidin-4-one]?
IC50 [1]: 1500 nM; IC50 (SHP2): 55 nM

What does the source list for `C[C@H]1CN(c2nc3[nH]cc(-c4ccc5nn(C)cc5c4Cl)c3c(=O)n2C)CCN1` [Example 45, (S)-5-(4-chloro-2-methyl-2H-indazol-5-yl)-3-methyl-2-(3-methylpiperazin-1-yl)-3,7-dihydro-4H-pyrrolo[2,3-d]pyrimidin-4-one]?
IC50 [1]: 1500 nM; IC50 (SHP2): 110 nM

How did the IC50 [1] turn out when `Cn1cc2c(Cl)c(-c3c[nH]c4nc(N5[C@@H]6CC[C@H]5[C@@H](N)C6)n(C)c(=O)c34)ccc2n1` [Example 46, 2-((1S,2S,4R)-2-amino-7-azabicyclo[2.2.1]heptan-7-yl)-5-(4-chloro-2-methyl-2H-indazol-5-yl)-3-methyl-3,7-dihydro-4H-pyrrolo[2,3-d]pyrimidin-4-one] was run?
Its IC50 is 420 nM.

And the IC50 (SHP2)?
Its IC50 is 33 nM.

How did the IC50 [1] turn out when `C[C@@H]1CNCCN1c1nc2[nH]cc(-c3ccc4nn(C)cc4c3Cl)c2c(=O)n1C` [Example 47, (R)-5-(4-chloro-2-methyl-2H-indazol-5-yl)-3-methyl-2-(2-methylpiperazin-1-yl)-3,7-dihydro-4H-pyrrolo[2,3-d]pyrimidin-4-one] was run?
Its IC50 is 380 nM.

What about the IC50 (SHP2) of the same compound?
The IC50 was 32 nM.

`C[C@H]1CNCCN1c1nc2[nH]cc(-c3ccc4nn(C)cc4c3Cl)c2c(=O)n1C` [Example 48, (S)-5-(4-chloro-2-methyl-2H-indazol-5-yl)-3-methyl-2-(2-methylpiperazin-1-yl)-3,7-dihydro-4H-pyrrolo[2,3-d]pyrimidin-4-one] was tested. Which IC50 [1] did it give?
The IC50 was 1000 nM.

And the IC50 (SHP2)?
The IC50 was 85 nM.

What does the source list for `Cn1cc2c(Cl)c(-c3c[nH]c4nc(N5[C@H]6CC[C@@H]5[C@H](N)C6)n(C)c(=O)c34)ccc2n1` [Example 49, 2-((1R,2R,4S)-2-amino-7-azabicyclo[2.2.1]heptan-7-yl)-5-(4-chloro-2-methyl-2H-indazol-5-yl)-3-methyl-3,7-dihydro-4H-pyrrolo[2,3-d]pyrimidin-4-one]?
IC50 [1]: 21 nM; IC50 (SHP2): 4.5 nM

How did the IC50 [1] turn out when `Cn1cc2c(Cl)c(-c3c[nH]c4nc(N5C[C@@H](N)[C@@H](F)C5)n(C)c(=O)c34)ccc2n1` [Example 50, 2-((3R,4S)-3-amino-4-fluoropyrrolidin-1-yl)-5-(4-chloro-2-methyl-2H-indazol-5-yl)-3-methyl-3,7-dihydro-4H-pyrrolo[2,3-d]pyrimidin-4-one] was run?
Its IC50 is 4700 nM.

What about the IC50 (SHP2) of the same compound?
Its IC50 is 250 nM.

How did the IC50 [1] turn out when `Cn1cc2c(Cl)c(-c3c[nH]c4nc(N5C[C@H](N)[C@@H](F)C5)n(C)c(=O)c34)ccc2n1` [Example 52, 2-((3S,4S)-3-amino-4-fluoropyrrolidin-1-yl)-5-(4-chloro-2-methyl-2H-indazol-5-yl)-3-methyl-3,7-dihydro-4H-pyrrolo[2,3-d]pyrimidin-4-one] was run?
Its IC50 is 1900 nM.

What about the IC50 (SHP2) of the same compound?
Its IC50 is 180 nM.
